{"source": "EPA's ToxValDB 9.5", "key": {"Typhlodromus pyri": {"test_system": "Typhlodromus pyri", "experiment": "LR50; higher = less toxic", "details": "not reported; mortality"}, "Colinus virginianus": {"test_system": "Colinus virginianus", "details": "reproduction developmental"}, "Daphnia magna": {"test_system": "Daphnia magna", "details": "chronic/long-term; duration: 21 days; reproduction"}, "Tagia sp.": {"test_system": "Tagia sp.", "details": "chronic/long-term, duration: 56 days"}, "Oncorhynchus mykiss": {"test_system": "Oncorhynchus mykiss", "details": "for NOEC: chronic/long-term; for LC50: acute, duration: 96 hours, mortality"}, "Bibionidae": {"test_system": "Bibionidae", "details": "chronic/long-term, other"}, "Danio rerio": {"test_system": "Danio rerio", "details": "acute; duration: 96 hours; mortality"}, "Anas platyrhynchos": {"test_system": "Anas platyrhynchos", "details": "short-term; duration: 8 days; oral; feed; body weight"}, "Lolium perenne": {"test_system": "Lolium perenne", "details": "acute; growth"}, "Mus musculus": {"test_system": "Mus musculus", "details": "chronic; duration: 2 years; M/F; B6C3F1; body weight"}, "Bovidae": {"test_system": "Bovidae", "details": "oral; for LEL: diet"}, "Gallus gallus": {"test_system": "Gallus gallus", "details": "subchronic"}, "Meleagris sp.": {"test_system": "Meleagris sp.", "details": "no effects"}, "Anatidae": {"test_system": "Anatidae", "details": "subchronic; duration: 41 days; oral; feed; M/F; no effects"}, "Rattus norvegicus": {"test_system": "Rattus norvegicus", "details": "oral, diet, M/F"}, "Raphanus sp.": {"test_system": "Raphanus sp.", "details": "acute; duration: 19 days; seedling emergence"}, "Sus scrofa": {"test_system": "Sus scrofa", "details": "oral, diet, Not specified"}, "Felidae": {"test_system": "Felidae", "details": "acute; oral; diet; Cat; neurology"}, "Macromiidae": {"test_system": "Macromiidae", "details": "acute; duration: 72 hours; growth"}, "Ovis sp.": {"test_system": "Ovis sp.", "details": "subchronic; duration: 3 months; oral; diet; food consumption"}, "Capra sp.": {"test_system": "Capra sp.", "details": "subchronic; duration: 56 days; food consumption"}}, "note": "Several values for one entry are separate records, joined by “and”; a condition that tells them apart may be missing. Equal entries are not always repeated."}
{"smiles": "CC(C)C1(C)N=C(c2nc3ccccc3cc2C(=O)O)NC1=O", "note": "(stereo not given) [Imazaquin]", "values": [{"measurement": "LR50", "setting": "Typhlodromus pyri", "value": "> 4", "unit": "g/ha"}, {"measurement": "NOEC", "setting": "Colinus virginianus", "value": 16.6, "unit": "mg/kg-day"}, {"measurement": "NOAEL", "setting": "Canidae; chronic, duration: 1 years, oral, Dog Other, clinical signs", "value": 25, "unit": "mg/kg-day"}, {"measurement": "NOEC", "setting": "Daphnia magna", "value": 100, "unit": "mg/L"}, {"measurement": "NOAEL", "setting": "Oryctolagus sp.; reproduction developmental, mortality", "value": 250, "unit": "mg/kg-day"}, {"measurement": "NOEC", "setting": "Tagia sp.", "value": 0.0275, "unit": "mg/kg"}, {"measurement": "NOEC", "setting": "Oncorhynchus mykiss; duration: 28 days, growth", "value": 51.2, "unit": "mg/L"}, {"measurement": "NOEC", "setting": "Bibionidae; duration: 28 days", "value": 228, "unit": "mg/kg"}]}
{"smiles": "O=C1O[C@H]([C@@H](O)CO)C(O)=C1O", "note": "[L-Ascorbic acid]", "values": [{"measurement": "LC50", "setting": "Danio rerio", "value": 32, "unit": "µg/mL"}, {"measurement": "LC50", "setting": "Oncorhynchus mykiss", "value": 1020, "unit": "µg/mL"}]}
{"smiles": "CC[C@@]1([C@@H]2O[C@@H]([C@H]3O[C@@](O)(CO)[C@H](C)C[C@@H]3C)C[C@@H]2C)CC[C@H]([C@]2(C)CC[C@]3(C[C@H](O)[C@@H](C)[C@@H]([C@@H](C)[C@@H](OC)[C@H](C)C(=O)[O-])O3)O2)O1.[Na+]", "note": "[Monensin sodium]", "values": [{"measurement": "NOEL", "setting": "Canidae; repeat dose other, oral, Dog Other, clinical signs", "value": 0.345, "unit": "mg/kg-day"}, {"measurement": "LD50", "setting": "Equus caballus; acute, oral, gavage, mortality", "value": 1.38, "unit": "mg/kg"}, {"measurement": "NOEL", "setting": "Anas platyrhynchos", "value": 62, "unit": "mg/kg"}, {"measurement": "NOEC", "setting": "Lolium perenne", "value": 2, "unit": "mg/kg"}, {"measurement": "NOEL", "setting": "Mus musculus", "value": 1.2, "unit": "mg/kg-day"}, {"measurement": "NOAEL", "setting": "Oryctolagus sp.; reproduction developmental", "value": 0.3, "unit": "mg/kg-day"}, {"measurement": "NOEL", "setting": "Oryctolagus sp.; reproduction developmental, duration: 23 days, oral, gavage, F, body weight", "value": 0.3, "unit": "mg/kg-day"}, {"measurement": "LEL", "setting": "Bovidae; chronic, duration: 160 days, M/F, no effects", "value": 110, "unit": "mg/kg-day"}, {"measurement": "LEL", "setting": "Bovidae; short-term, duration: 28 days, M/F, no effects", "value": 4.5, "unit": "mg/kg-day"}, {"measurement": "NOEC", "setting": "Tagia sp.; reproduction", "value": 50, "unit": "mg/kg"}, {"measurement": "LC50", "setting": "Oncorhynchus mykiss", "value": 1.88, "unit": "µg/mL"}, {"measurement": "NOEC", "setting": "Oncorhynchus mykiss; duration: 50 days, development", "value": 0.05, "unit": "mg/L"}, {"measurement": "LEL", "setting": "Gallus gallus; duration: 35 days, oral, diet, M/F, no effects", "value": 125, "unit": "mg/kg-day"}, {"measurement": "LEL", "setting": "Meleagris sp.; subchronic, duration: 84 days, oral, feed, M/F", "value": 100, "unit": "mg/kg"}]}
{"smiles": "CC[C@@H](C(=O)O)[C@@H]1O[C@@H]([C@@H](C)[C@H](O)[C@H](C)C(=O)[C@H](CC)[C@H]2O[C@]3(C=C[C@@H](O)[C@]4(CC[C@@](C)([C@H]5CC[C@](O)(CC)[C@H](C)O5)O4)O3)[C@H](C)C[C@@H]2C)[C@@H](C)C[C@@H]1C", "note": "[Narasin]", "values": [{"measurement": "NOAEL", "setting": "Canidae; chronic, duration: 1 years, oral, capsule, M/F, Dog Other, histopathology: nonneoplastic", "value": 0.5, "unit": "mg/kg-day"}, {"measurement": "LEL", "setting": "Equus caballus; short-term, duration: 1 months, oral, feed, M/F, food consumption", "value": 80, "unit": "mg/kg"}, {"measurement": "LEL", "setting": "Anatidae", "value": 280, "unit": "mg/kg"}, {"measurement": "LEL", "setting": "Oryctolagus sp.; acute, Hungarian, clinical signs", "value": "≥ 35", "unit": "mg/kg-day"}, {"measurement": "NOEL", "setting": "Bovidae; short-term, duration: 14 days, gavage, F, clinical signs", "value": 0.5, "unit": "mg/kg-day"}, {"measurement": "LC50", "setting": "Oncorhynchus mykiss", "value": 2.23, "unit": "µg/mL"}, {"measurement": "NOEC", "setting": "Pontoscolex corethrurus; acute, duration: 7 days, body weight", "value": 4.3, "unit": "mg/kg"}]}
{"smiles": "O=[N+]([O-])c1ccc([As](=O)(O)O)cc1", "note": "[Nitarsone]", "values": [{"measurement": "LEL", "setting": "Canidae; subchronic, duration: 90 days, oral, diet, Dog Other, no effects", "value": 37.5, "unit": "mg/kg-day"}, {"measurement": "NOEL", "setting": "Rattus norvegicus; chronic, duration: 2 years, Long-Evans, histopathology: nonneoplastic", "value": 2, "unit": "mg/kg-day"}, {"measurement": "LEL", "setting": "Meleagris sp.; not reported", "value": 750, "unit": "mg/kg"}]}
{"smiles": "CC[C@@H](C(=O)[C@@H](C)[C@@H](O)[C@H](C)[C@@H]1O[C@@H]([C@@H](CC)C(=O)[O-])CC[C@@H]1C)[C@H]1O[C@]2(C=C[C@@H](O)[C@]3(CC[C@@](C)([C@H]4CC[C@](O)(CC)[C@H](C)O4)O3)O2)[C@H](C)C[C@@H]1C.[Na+]", "note": "[Salinomycin sodium]", "values": [{"measurement": "LC50", "setting": "Raphanus sp.", "value": 2.6, "unit": "mg/kg"}, {"measurement": "NOAEL", "setting": "Canidae; acute, duration: 1 days, oral, gavage, Beagle, clinical signs", "value": 0.5, "unit": "mg/kg-day"}, {"measurement": "NOAEL", "setting": "Canidae; chronic, duration: 1 years, oral, diet, Dog Other, neurology", "value": 0.5, "unit": "mg/kg-day"}, {"measurement": "NOAEL", "setting": "Canidae; chronic, duration: 12 months, Dog Other", "value": 0.5, "unit": "mg/kg-day"}, {"measurement": "NOEL", "setting": "Canidae; chronic, duration: 12 months, oral, capsule, M/F, Dog Other, neurology", "value": 0.5, "unit": "mg/kg-day"}, {"measurement": "NOEL", "setting": "Canidae; repeat dose other, oral, capsule, Dog Other, clinical signs", "value": 0.625, "unit": "mg/kg-day"}, {"measurement": "LEL", "setting": "Equus caballus; other, oral, feed, clinical signs", "value": "≥ 0.12", "unit": "mg/kg"}, {"measurement": "LC50", "setting": "Danio rerio", "value": 6.98, "unit": "µg/mL"}, {"measurement": "NOAEL", "setting": "Sus scrofa; chronic, duration: 14 weeks, M/F, no effects", "value": "≥ 5", "unit": "mg/kg-day"}, {"measurement": "NOEL", "setting": "Oryctolagus sp.; reproduction developmental, duration: 24 days, oral, diet, F, reproduction", "value": 0.5, "unit": "mg/kg-day"}, {"measurement": "NOEL", "setting": "Oryctolagus sp.; reproduction developmental, reproduction", "value": 0.5, "unit": "mg/kg-day"}, {"measurement": "LEL", "setting": "Oryctolagus sp.; subchronic, duration: 6 weeks, oral, diet, food consumption", "value": "≤ 25", "unit": "mg/kg-day"}, {"measurement": "LEL", "setting": "Bovidae; subchronic, duration: 11 weeks, morphology", "value": 90, "unit": "mg/kg-day"}, {"measurement": "LEL", "setting": "Felidae", "value": "≥ 16", "unit": "mg/kg-day"}, {"measurement": "LOEL", "setting": "Rattus norvegicus; chronic, duration: 2 years, Wistar, clinical chemistry", "value": 1.5, "unit": "mg/kg-day"}, {"measurement": "NOAEL", "setting": "Rattus norvegicus; subchronic, duration: 90 days, Sprague-Dawley, organ weight", "value": 0.6, "unit": "mg/kg-day"}, {"measurement": "LC50", "setting": "Oncorhynchus mykiss", "value": "1.7 µg/mL and 1.14 µg/mL"}, {"measurement": "LEL", "setting": "Gallus gallus; duration: 5 weeks, oral, diet, M, body weight", "value": 140, "unit": "mg/kg-day"}, {"measurement": "LEL", "setting": "Gallus gallus; duration: 12 weeks, oral, diet, body weight", "value": 60, "unit": "mg/kg-day"}, {"measurement": "LEL", "setting": "Gallus gallus; duration: 42 days, organ weight", "value": 140, "unit": "mg/kg-day"}, {"measurement": "LEL", "setting": "Gallus gallus; duration: 56 days, growth", "value": 150, "unit": "mg/kg-day"}, {"measurement": "NOEC", "setting": "Bibionidae", "value": 6.6, "unit": "mg/kg"}]}
{"smiles": "O=C([O-])CC[C@@H](C(=O)[O-])N(CC(=O)[O-])CC(=O)[O-].[Na+].[Na+].[Na+].[Na+]", "note": "[Tetrasodium glutamate diacetate]", "values": [{"measurement": "NOEC", "setting": "Macromiidae", "value": 1, "unit": "mg/L"}, {"measurement": "NOAEL", "setting": "Oryctolagus sp.; reproduction developmental, duration: 21 days, oral, gavage, F, New Zealand, clinical signs", "value": 20, "unit": "mg/kg-day"}, {"measurement": "LEL", "setting": "Gallus gallus; duration: 35 days, oral, diet, M, Chicken, body weight", "value": 10000, "unit": "mg/kg-day"}, {"measurement": "NOEC", "setting": "Pontoscolex corethrurus; reproductive, no effects", "value": 248, "unit": "mg/kg"}]}
{"smiles": "Cn1cnc2c1c(=O)[nH]c(=O)n2C", "note": "[Theobromine]", "values": [{"measurement": "LEL", "setting": "Equus caballus; acute, no effects", "value": 0.5, "unit": "mg/kg"}, {"measurement": "NOAEL", "setting": "Sus scrofa; subchronic, growth", "value": 7, "unit": "mg/kg-day"}, {"measurement": "NOAEL", "setting": "Ovis sp.", "value": 35, "unit": "mg/kg-day"}, {"measurement": "NOAEL", "setting": "Oryctolagus sp.; developmental, development", "value": 21, "unit": "mg/kg-day"}, {"measurement": "LEL", "setting": "Capra sp.", "value": 300, "unit": "mg/kg-day"}]}
